From US20130096100A1, “DI(ARYLAMINO)ARYL COMPOUND” (ASTELLAS PHARMA INC., priority 2007, published 2013) come the findings set out here.

Structures are written as SMILES. pIC50: −log10 of the molar value.

Test [1] concerns the target T1, EML4-ALK fusion protein v1 (Homo sapiens, UniProt Q9UM73, D1529E/I1461V/K1491R).
T1 construct: FLAG (N); made in house
The test is described as follows: Inhibitory activity against the kinase activity of EML4-ALK fusion protein v1 (Test Example 1). To be noted: ATP 100 μM, reaction 1 hour, HTRF KinEASE-TK. It is filed as biochemical. How it is done: EML4-ALK fusion protein v1 (purified from BA/F3 cells expressing EML4-ALK fusion protein v1) was investigated for its phosphorylation activity toward a peptide substrate by using a kinase activity detection kit (HTRF KinEASE-TK; Cisbio Inc.). […] The ATP concentration used was 100 μM. Another reaction solution was prepared to contain the enzyme protein but no test compound (in which the solvent DMSO alone was added at 0.4% in place of the test compound), followed by reaction in the same manner with or without ATP addition. […] The concentration causing 50% inhibition (IC50) was calculated for each test compound by the logistic regression method.
N-terminally FLAG-tagged EML4-ALK fusion protein v1 was inserted into a vector pMX-iresCD8 capable of co-expression of insert cDNA and cell surface antigen CD8 (J. Biol. Chem., 2001, vol. 276, p. 39012-39020) to create a vector FLAG-EML4-ALKv1/pMX-iresCD8 expressing both FLAG-EML4-ALKv1 and CD8. FLAG-EML4-ALKv1/pMX-iresCD8 was used to create a recombinant retrovirus in the same manner as described above and infected into mouse lymphoid cell line BA/F3 cells. Using a magnetic bead reagent for cell separation and a purification column (anti-CD8 monoclonal antibody immobilized on magnetic beads and a MiniMACS purification column; both are products of Miltenyi Biotec Inc.), cell surface CD8-expressing cells were purified conveniently. […] After washing 3 times with PBS, the cells were lysed in a lysis solution (50 mM Tris.HCl (pH 7.4), 150 mM NaCl, 1% Triton X100, 5 mM EDTA, 5 mM EGTA, 1 mM NaVO4, 1 mM DTT and protease inhibitor cocktail complete). The EML4-ALK fusion protein v1 present in the supernatant obtained after centrifugation was purified using ANTI-FLAG M2 Affinity Gel (SIGMA-ALDRICH Inc.) according to the method described in the product information document.
The EML4-ALK fusion protein v1 purified as above was investigated for its phosphorylation activity toward a peptide substrate using a kinase activity detection kit (HTRF KinEASE-TK; Cisbio Inc.). Using TK substrate 1, which was included in the kit, as the substrate, and after adding no ATP or 100 μM ATP, the mixtures were reacted at room temperature for 1 hour, and the count of HTRF was detected as recommended by the Kits manufacturer.
(Time-resolved FRET reads energy transfer from a long-lived donor to a nearby acceptor.)

Test [2] concerns the target T2, Mutant EGFR (L858R) protein (Homo sapiens, UniProt P00533, L858R).
T2 construct: purchased Cana Biosciences Inc., Japan (sic; Carna Biosciences)
The test is described as follows: Inhibitory activity against the kinase activity of mutant EGFR (L858R) protein (Test Example 2). Type of test: biochemical. Conditions: ATP 5 μM, reaction 1 hour, HTRF KinEASE-TK. How it is done:
The ATP concentration used was 5 μM. Another reaction solution was prepared to contain the enzyme protein but no test compound (in which the solvent DMSO alone was added at 0.4% in place of the test compound), followed by reaction in the same manner with or without ATP addition. […] The concentration causing 50% inhibition (IC50) was calculated for each test compound by the logistic regression method.

Test [3] concerns human non-small cell lung cancer cell line HCC827 cells (mutant EGFR protein-expressing cells). The test is described as follows: Inhibitory effect against anchorage-independent cell growth of HCC827 cells (Test Example 4). It is filed as cell-based. To be noted: 120 h, spheroid plate, 5 days, CellTiter-Glo. A general note: Cellular ATP, detected with luciferase, serves as a proxy for viable cell number.

A further test has as its target T3, MNK1 (Homo sapiens, UniProt Q9BUB5).
T3 construct: purchased Carna Biosciences Inc., Japan (contract measurement)
The test is described as follows: Kinase inhibition profiling, MNK1 (Test Example 6). Type of test: biochemical. Conditions: 100 nM; read-out: inhibitory activity against MNK1.

T1 sequence (Q9UM73 with tags, fused parts or gaps I1461V/K1491R/D1529E): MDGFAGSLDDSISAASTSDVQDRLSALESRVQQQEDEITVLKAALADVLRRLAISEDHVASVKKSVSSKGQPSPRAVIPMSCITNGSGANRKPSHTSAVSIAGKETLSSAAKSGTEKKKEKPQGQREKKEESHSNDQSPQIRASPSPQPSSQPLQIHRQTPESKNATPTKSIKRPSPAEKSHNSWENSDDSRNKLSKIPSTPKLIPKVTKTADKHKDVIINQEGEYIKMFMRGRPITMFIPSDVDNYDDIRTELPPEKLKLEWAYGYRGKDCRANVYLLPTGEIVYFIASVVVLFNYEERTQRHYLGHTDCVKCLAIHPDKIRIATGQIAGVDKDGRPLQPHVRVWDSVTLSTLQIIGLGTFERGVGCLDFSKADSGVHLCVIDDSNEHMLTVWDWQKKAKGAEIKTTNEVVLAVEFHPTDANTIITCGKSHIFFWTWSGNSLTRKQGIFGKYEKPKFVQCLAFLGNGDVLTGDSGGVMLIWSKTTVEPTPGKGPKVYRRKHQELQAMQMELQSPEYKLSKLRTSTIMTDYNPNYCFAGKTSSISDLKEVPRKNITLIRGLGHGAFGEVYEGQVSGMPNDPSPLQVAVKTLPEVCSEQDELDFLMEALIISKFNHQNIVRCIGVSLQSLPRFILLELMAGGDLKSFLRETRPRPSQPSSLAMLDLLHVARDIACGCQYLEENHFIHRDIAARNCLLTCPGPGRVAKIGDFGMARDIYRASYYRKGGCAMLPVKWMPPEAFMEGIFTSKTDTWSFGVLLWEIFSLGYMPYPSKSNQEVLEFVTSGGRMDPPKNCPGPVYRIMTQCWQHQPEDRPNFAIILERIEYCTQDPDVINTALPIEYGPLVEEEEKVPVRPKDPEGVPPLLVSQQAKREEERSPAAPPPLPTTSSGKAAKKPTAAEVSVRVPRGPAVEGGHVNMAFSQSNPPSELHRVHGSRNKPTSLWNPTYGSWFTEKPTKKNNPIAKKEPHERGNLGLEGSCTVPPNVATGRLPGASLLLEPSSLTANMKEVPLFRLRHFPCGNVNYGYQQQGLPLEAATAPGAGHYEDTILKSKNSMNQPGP
T2 sequence (P00533 25-1210 L858R): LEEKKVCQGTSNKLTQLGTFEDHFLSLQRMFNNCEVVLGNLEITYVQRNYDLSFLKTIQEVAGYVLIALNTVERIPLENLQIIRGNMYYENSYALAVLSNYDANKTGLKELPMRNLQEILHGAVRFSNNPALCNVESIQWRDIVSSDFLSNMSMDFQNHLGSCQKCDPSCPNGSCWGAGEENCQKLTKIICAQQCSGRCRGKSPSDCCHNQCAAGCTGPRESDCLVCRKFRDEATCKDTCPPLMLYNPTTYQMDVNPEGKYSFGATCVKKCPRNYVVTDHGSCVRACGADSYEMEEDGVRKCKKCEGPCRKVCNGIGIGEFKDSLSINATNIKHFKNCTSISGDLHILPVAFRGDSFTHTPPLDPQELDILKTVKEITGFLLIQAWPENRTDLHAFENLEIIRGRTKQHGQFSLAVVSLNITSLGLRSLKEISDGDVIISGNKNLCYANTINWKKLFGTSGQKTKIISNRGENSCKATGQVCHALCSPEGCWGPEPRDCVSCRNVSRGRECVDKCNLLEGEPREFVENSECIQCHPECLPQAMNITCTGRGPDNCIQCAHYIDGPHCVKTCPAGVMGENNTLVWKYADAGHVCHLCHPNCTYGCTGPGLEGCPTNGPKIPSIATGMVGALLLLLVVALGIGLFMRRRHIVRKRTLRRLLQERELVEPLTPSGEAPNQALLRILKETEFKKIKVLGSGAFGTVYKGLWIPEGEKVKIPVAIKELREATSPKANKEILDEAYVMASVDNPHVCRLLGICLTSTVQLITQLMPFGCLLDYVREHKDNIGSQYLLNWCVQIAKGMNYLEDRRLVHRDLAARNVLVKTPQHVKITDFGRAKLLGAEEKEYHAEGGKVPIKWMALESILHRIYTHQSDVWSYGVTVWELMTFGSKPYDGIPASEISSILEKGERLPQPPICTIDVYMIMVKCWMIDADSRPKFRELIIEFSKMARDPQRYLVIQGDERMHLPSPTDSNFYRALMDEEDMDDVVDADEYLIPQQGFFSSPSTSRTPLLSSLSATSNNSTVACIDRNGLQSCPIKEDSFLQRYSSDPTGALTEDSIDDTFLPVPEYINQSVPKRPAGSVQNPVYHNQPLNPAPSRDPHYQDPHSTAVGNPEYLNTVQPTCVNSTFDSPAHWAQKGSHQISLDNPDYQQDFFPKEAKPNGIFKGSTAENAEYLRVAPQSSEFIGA
T3 sequence (Q9BUB5 whole entry): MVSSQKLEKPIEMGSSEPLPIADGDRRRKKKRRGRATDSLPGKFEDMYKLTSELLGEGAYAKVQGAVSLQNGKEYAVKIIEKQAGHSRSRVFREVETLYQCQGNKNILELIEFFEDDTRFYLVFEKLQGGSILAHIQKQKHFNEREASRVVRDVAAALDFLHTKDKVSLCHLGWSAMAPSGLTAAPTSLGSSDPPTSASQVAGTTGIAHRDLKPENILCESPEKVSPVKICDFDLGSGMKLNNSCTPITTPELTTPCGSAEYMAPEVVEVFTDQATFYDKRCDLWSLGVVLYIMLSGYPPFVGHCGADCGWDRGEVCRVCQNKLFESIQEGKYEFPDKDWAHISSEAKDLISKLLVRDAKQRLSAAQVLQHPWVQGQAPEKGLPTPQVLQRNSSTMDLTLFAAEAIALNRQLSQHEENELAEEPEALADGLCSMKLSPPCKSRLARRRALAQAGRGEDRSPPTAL

As for `CCNS(=O)(=O)c1ccccc1Nc1ncnc(Nc2ccc(N3CCC(N4CCN(C)CC4)CC3)cc2OC)n1` [Example 123], the values for the pIC50 in test [1], in test [2] and in test [3] were 7.48, 7.00 and 6.62, respectively.

With `COc1cc(N2CCC(N3CCN(C)CC3)CC2)ccc1Nc1ncnc(Nc2ccccc2S(=O)(=O)C(C)C)n1` [Example 23], the pIC50 is 7.77 in test [1], 6.92 in test [2] and 6.57 in test [3]. Further, the inhibition at 0.1 µM at MNK1 turned out to be 60%.

For orientation: pIC50 means the negative decadic logarithm of the IC50, by convention in mol/L. Lower therefore signals a large IC50.
